# Source: ChEMBL document CHEMBL1649413, “Structure-activity relationship of 4(5)-aryl-2-amino-1H-imidazoles, N1-substituted 2-aminoimidazoles and imidazo[1,2-a]pyrimidinium salts as inhibitors of biofilm formation by Salmonella typhimurium and Pseudomonas aeruginosa” (J Med Chem, 2011)
# Calls of active or inactive are those of the source. The calls are words filed in the database; no cut-off is given here.
# Test system: Salmonella typhimurium
# Experiment: Antimicrobial activity against Salmonella Typhimurium ATCC 14028 assessed as inhibition of planktonic growth at 400 uM at 25 degC after 24 hrs
# Assay type: functional, organism-based
# Conditions: Salmonella enterica subsp. enterica serovar Typhimurium
row,SMILES,inhibition
1,CCCCNc1ncccn1,inactive
2,C#CCN(C)c1ncccn1,inactive
3,c1cnc(NC2CC2)nc1,inactive
4,CCCNc1ncccn1,inactive
5,CCCCCCCCNc1ncccn1,inactive
6,CCCCCCCNc1ncccn1,inactive
7,CCNc1ncccn1,inactive
8,c1cnc(NC2CCCCCCC2)nc1,inactive
9,CC(C)(C)[Si](C)(C)Oc1ccc(CNc2ncccn2)cc1,inactive
10,CCCCCCCCCNc1ncccn1,inactive
11,c1cnc(NC2CCC2)nc1,inactive
12,c1cnc(NC2CCCCC2)nc1,inactive
13,c1cnc(NC2CCCCCCCCCCC2)nc1,inactive
14,COc1cccc(Nc2ncccn2)c1,inactive
15,C=CCNc1ncccn1,inactive
16,CCCCCCNc1ncccn1,inactive
17,Cc1cccc(Nc2ncccn2)c1,inactive

row,SMILES,inhibition
1,CCCCCCCCCCCNc1ncccn1,inactive
2,Cc1ccc(CNc2ncccn2)c(C)c1,inactive
3,c1cnc(NCc2ccc3c(c2)OCO3)nc1,inactive
4,Cc1ccc(CNc2ncccn2)cc1,inactive
5,c1ccc(CNc2ncccn2)cc1,inactive
6,c1ccc(Nc2ncccn2)cc1,inactive
7,c1cnc(NC2CCCCCC2)nc1,inactive
8,CN(C)c1ncccn1,inactive
9,CCCCCCCCCCCCCNc1ncccn1,inactive
10,CCCCCNc1ncccn1,inactive
11,COc1ccc(CCNc2ncccn2)cc1,inactive
12,CCCCCCCCCCCCCCNc1ncccn1,inactive
13,CCCCCCCCCCNc1ncccn1,inactive
14,c1cnc(NC2CCCC2)nc1,inactive
15,CCCCCCCCCCCCNc1ncccn1,inactive
16,Brc1ccccc1Nc1ncccn1,inactive

# Test system: Salmonella typhimurium
# Experiment: Antibiofilm activity in Salmonella Typhimurium ATCC 14028 assessed as inhibition of biofilm formation at 25 degC after 24 hrs
# Assay type: functional, organism-based, Salmonella enterica subsp. enterica serovar Typhimurium
# Conditions: Salmonella enterica, ATCC 14028, 24 h
row,SMILES,IC50
1,CC(C)n1c(-c2ccc([N+](=O)[O-])cc2)cnc1N,360 µM
2,CCCCCCCCn1c(-c2ccc(OC)cc2)cnc1N,8.5 µM
3,O=[N+]([O-])c1ccc(-c2cn3cccnc3[n+]2C2CCCCC2)cc1.[O-][Cl+3]([O-])([O-])[O-],561 µM
4,CS(=O)(=O)c1ccc(-c2cnc(N)[nH]2)cc1,> 800 µM
5,CC[n+]1c(-c2ccc([N+](=O)[O-])cc2)cn2cccnc21.[O-][Cl+3]([O-])([O-])[O-],> 800 µM
6,CC(C)C[n+]1c(-c2ccc([N+](=O)[O-])cc2)cn2cccnc21.[O-][Cl+3]([O-])([O-])[O-],405 µM
7,CCCCn1c(-c2ccc(F)cc2)cnc1N,56.2 µM
8,CCCCCCCC[n+]1c(-c2ccc(S(C)(=O)=O)cc2)cn2cccnc21.[O-][Cl+3]([O-])([O-])[O-],82 µM
9,N#Cc1ccc(-c2cnc(N)[nH]2)cc1,316 µM
10,CC(C)[n+]1c(-c2ccc([N+](=O)[O-])cc2)cn2cccnc21.[O-][Cl+3]([O-])([O-])[O-],> 800 µM
11,CCCCn1c(-c2ccc([N+](=O)[O-])cc2)cnc1N,114 µM
12,CCCC[n+]1c(-c2ccc([N+](=O)[O-])cc2)cn2cccnc21.[O-][Cl+3]([O-])([O-])[O-],> 400 µM
13,C[n+]1c(-c2cccc([N+](=O)[O-])c2)cn2cccnc21.[O-][Cl+3]([O-])([O-])[O-],427 µM

# Next, values leading:
row,IC50,SMILES
1,60.2 µM,CCCCCCCCCCCn1c(-c2ccc(-c3ccccc3)cc2)cnc1N
2,108 µM,Cn1c(-c2ccc(Cl)cc2)cnc1N
3,9.2 µM,CCCCCn1c(-c2ccc(-c3ccccc3)cc2)cnc1N
4,120 µM,Nc1ncc(-c2ccc(Cl)cc2)n1C1CCCCCCCCCCC1
5,62.3 µM,Cc1ccc(-c2cnc(N)n2C)cc1
6,> 400 µM,Cn1c(-c2ccc(C#N)cc2)cnc1N
7,> 400 µM,Cc1ccc(-c2nc(N)n(-c3ccccc3)c2-c2ccc(Cl)cc2)cc1
8,26.3 µM,Nc1ncc(-c2ccc(-c3ccccc3)cc2)n1C1CCC1
9,55.1 µM,Nc1ncc(-c2ccccc2)n1Cc1ccccc1
10,156 µM,COc1ccc(Cn2c(-c3ccccc3)cnc2N)cc1OC
11,16.2 µM,CCCCn1c(-c2ccc(Br)cc2)cnc1N
12,54.8 µM,Nc1ncc(-c2ccc(Cl)cc2)n1C1CC1
13,116 µM,CCCCCCCCn1c(-c2ccc(-c3ccc([N+](=O)[O-])cc3)cc2)cnc1N
14,77.1 µM,COc1ccc(-c2[nH]c(N)nc2-c2ccccc2)cc1
15,70.7 µM,Nc1ncc(-c2ccccc2)n1C1CCCC1
16,> 800 µM,CCCCCCCCCCCCCCn1c(-c2ccc(-c3ccccc3)cc2)cnc1N
17,12.1 µM,CCCCCCn1c(-c2ccc(-c3ccccc3)cc2)cnc1N
18,> 800 µM,Nc1ncc(-c2ccc(-c3ccccc3)cc2)n1C1CCCCCCCCCCC1
19,28.5 µM,Nc1ncc(-c2ccc(Cl)cc2)n1Cc1ccccc1

row,IC50,SMILES
1,286 µM,CCn1c(-c2ccc([N+](=O)[O-])cc2)cnc1N
2,74.2 µM,Nc1ncc(-c2ccc(Br)cc2)n1Cc1ccccc1
3,206 µM,CCn1c(-c2ccccc2)cnc1N
4,97.3 µM,Nc1ncc(-c2ccccc2)n1Cc1ccc2c(c1)OCO2
5,162 µM,Cn1c(-c2ccc([N+](=O)[O-])cc2)cnc1N
6,57.8 µM,CCCCn1c(-c2ccc(Cl)cc2)cnc1N
7,290 µM,CCn1c(-c2ccc(F)cc2)cnc1N
8,120 µM,COc1ccc(-c2cnc(N)[nH]2)cc1
9,71.8 µM,Nc1nc(-c2ccc(Cl)cc2)c(-c2cc(F)cc(F)c2)[nH]1
10,37.3 µM,Nc1ncc(-c2ccc(F)cc2)n1Cc1ccccc1
11,77.7 µM,Cc1ccc(-c2cnc(N)[nH]2)cc1
12,203 µM,Cc1ccc(-c2cnc(N)n2C(C)C)cc1
13,170 µM,O=[N+]([O-])c1ccc(-c2cn3cccnc3[n+]2Cc2ccccc2)cc1.[O-][Cl+3]([O-])([O-])[O-]
14,46.9 µM,Nc1nc(-c2ccccc2)c(-c2ccc(Cl)cc2)[nH]1
15,126 µM,CCn1c(-c2ccc(Br)cc2)cnc1N
16,89.6 µM,Nc1ncc(-c2ccccc2)n1C1CC1
17,850 µM,CCCCCCCCn1c(-c2ccc(-c3ccc(-c4ccccc4)cc3)cc2)cnc1N
18,432 µM,Cn1c(-c2ccccc2)cnc1N
19,185 µM,COc1ccc(CCn2c(-c3ccccc3)cnc2N)cc1OC

# Test system: Salmonella typhimurium
# Experiment: Antimicrobial activity against Salmonella Typhimurium ATCC 14028 assessed as inhibition of planktonic growth at 20 uM at 25 degC after 24 hrs
# Assay type: functional, organism-based
# Conditions: Salmonella enterica subsp. enterica serovar Typhimurium
row,SMILES,inhibition
1,CCCCCCCCn1c(-c2ccc(OC)cc2)cnc1N,Active
2,CCCCCCn1c(-c2ccc(-c3ccccc3)cc2)cnc1N,Active

# Test system: Salmonella typhimurium
# Experiment: Antimicrobial activity against Salmonella Typhimurium ATCC 14028 assessed as inhibition of planktonic growth at 10 uM at 25 degC after 24 hrs
# Assay type: functional, organism-based
# Conditions: Salmonella enterica subsp. enterica serovar Typhimurium
row,SMILES,inhibition
1,CCCCCCCCn1c(-c2ccc(OC)cc2)cnc1N,inactive
2,CCCCCCn1c(-c2ccc(-c3ccccc3)cc2)cnc1N,Active

# Test system: Pseudomonas aeruginosa
# Experiment: Antibiofilm activity in Pseudomonas aeruginosa assessed as inhibition of biofilm formation at 25 degC after 24 hrs
# Assay type: functional, organism-based
# Conditions: not given
row,SMILES,IC50
1,CC(C)n1c(-c2ccc([N+](=O)[O-])cc2)cnc1N,> 800 µM
2,CCCCCCCCn1c(-c2ccc(OC)cc2)cnc1N,1.2 µM
3,O=[N+]([O-])c1ccc(-c2cn3cccnc3[n+]2C2CCCCC2)cc1.[O-][Cl+3]([O-])([O-])[O-],250 µM
4,CS(=O)(=O)c1ccc(-c2cnc(N)[nH]2)cc1,> 800 µM
5,CC[n+]1c(-c2ccc([N+](=O)[O-])cc2)cn2cccnc21.[O-][Cl+3]([O-])([O-])[O-],> 800 µM
6,CC(C)C[n+]1c(-c2ccc([N+](=O)[O-])cc2)cn2cccnc21.[O-][Cl+3]([O-])([O-])[O-],> 800 µM
7,CCCCn1c(-c2ccc(F)cc2)cnc1N,55.7 µM
8,CCCCCCCC[n+]1c(-c2ccc(S(C)(=O)=O)cc2)cn2cccnc21.[O-][Cl+3]([O-])([O-])[O-],49.6 µM
9,CC(C)[n+]1c(-c2ccc([N+](=O)[O-])cc2)cn2cccnc21.[O-][Cl+3]([O-])([O-])[O-],> 800 µM
10,CCCCn1c(-c2ccc([N+](=O)[O-])cc2)cnc1N,373 µM
11,CCCC[n+]1c(-c2ccc([N+](=O)[O-])cc2)cn2cccnc21.[O-][Cl+3]([O-])([O-])[O-],> 800 µM
12,C[n+]1c(-c2cccc([N+](=O)[O-])c2)cn2cccnc21.[O-][Cl+3]([O-])([O-])[O-],> 800 µM

# Further lines, results first:
row,IC50,SMILES
1,> 400 µM,CCCCCCCCCCCn1c(-c2ccc(-c3ccccc3)cc2)cnc1N
2,112 µM,Cn1c(-c2ccc(Cl)cc2)cnc1N
3,73.9 µM,CCCCCn1c(-c2ccc(-c3ccccc3)cc2)cnc1N
4,> 800 µM,Nc1ncc(-c2ccc(Cl)cc2)n1C1CCCCCCCCCCC1
5,31.7 µM,Cc1ccc(-c2cnc(N)n2C)cc1
6,331 µM,Cn1c(-c2ccc(C#N)cc2)cnc1N
7,> 800 µM,Cc1ccc(-c2nc(N)n(-c3ccccc3)c2-c2ccc(Cl)cc2)cc1
8,24.5 µM,Nc1ncc(-c2ccc(-c3ccccc3)cc2)n1C1CCC1
9,26.1 µM,Nc1ncc(-c2ccccc2)n1Cc1ccccc1
10,159 µM,COc1ccc(Cn2c(-c3ccccc3)cnc2N)cc1OC
11,18.7 µM,CCCCn1c(-c2ccc(Br)cc2)cnc1N
12,13 µM,Nc1ncc(-c2ccc(Cl)cc2)n1C1CC1
13,> 800 µM,CCCCCCCCn1c(-c2ccc(-c3ccc([N+](=O)[O-])cc3)cc2)cnc1N
14,12.6 µM,Nc1ncc(-c2ccccc2)n1C1CCCC1
15,> 400 µM,CCCCCCCCCCCCCCn1c(-c2ccc(-c3ccccc3)cc2)cnc1N
16,32.1 µM,CCCCCCn1c(-c2ccc(-c3ccccc3)cc2)cnc1N
17,> 800 µM,Nc1ncc(-c2ccc(-c3ccccc3)cc2)n1C1CCCCCCCCCCC1
18,14.8 µM,Nc1ncc(-c2ccc(Cl)cc2)n1Cc1ccccc1

row,IC50,SMILES
1,126 µM,CCn1c(-c2ccc([N+](=O)[O-])cc2)cnc1N
2,57.8 µM,Nc1ncc(-c2ccc(Br)cc2)n1Cc1ccccc1
3,20.7 µM,CCn1c(-c2ccccc2)cnc1N
4,104 µM,Nc1ncc(-c2ccccc2)n1Cc1ccc2c(c1)OCO2
5,69.8 µM,Cn1c(-c2ccc([N+](=O)[O-])cc2)cnc1N
6,16.7 µM,CCCCn1c(-c2ccc(Cl)cc2)cnc1N
7,67.8 µM,CCn1c(-c2ccc(F)cc2)cnc1N
8,186 µM,COc1ccc(-c2cnc(N)[nH]2)cc1
9,32 µM,Nc1ncc(-c2ccc(F)cc2)n1Cc1ccccc1
10,45.8 µM,Cc1ccc(-c2cnc(N)[nH]2)cc1
11,240 µM,Cc1ccc(-c2cnc(N)n2C(C)C)cc1
12,> 800 µM,O=[N+]([O-])c1ccc(-c2cn3cccnc3[n+]2Cc2ccccc2)cc1.[O-][Cl+3]([O-])([O-])[O-]
13,60.5 µM,CCn1c(-c2ccc(Br)cc2)cnc1N
14,35 µM,Nc1ncc(-c2ccccc2)n1C1CC1
15,> 800 µM,CCCCCCCCn1c(-c2ccc(-c3ccc(-c4ccccc4)cc3)cc2)cnc1N
16,95.2 µM,Cn1c(-c2ccccc2)cnc1N
17,51.9 µM,COc1ccc(CCn2c(-c3ccccc3)cnc2N)cc1OC

# Test system: Pseudomonas aeruginosa
# Experiment: Antimicrobial activity against Pseudomonas aeruginosa assessed as inhibition of planktonic growth at 40 uM at 25 degC after 24 hrs
# Assay type: functional, organism-based
# Conditions: not given
row,SMILES,inhibition
1,CCn1c(-c2ccccc2)cnc1N,inactive
2,CCCCn1c(-c2ccc(Cl)cc2)cnc1N,inactive

# Test system: Pseudomonas aeruginosa
# Experiment: Antimicrobial activity against Pseudomonas aeruginosa assessed as inhibition of planktonic growth at 20 uM at 25 degC after 24 hrs
# Assay type: functional, organism-based
# Conditions: not given
row,SMILES,inhibition
1,Nc1ncc(-c2ccc(Cl)cc2)n1C1CC1,inactive
2,CCCCCCCCn1c(-c2ccc(OC)cc2)cnc1N,inactive
3,Nc1ncc(-c2ccccc2)n1C1CCCC1,inactive
4,CCn1c(-c2ccccc2)cnc1N,inactive
5,CCCCn1c(-c2ccc(Cl)cc2)cnc1N,inactive
